The values below come from patent US7812021B2, “Pyrrolidine aryl-ether as NK3 receptor antagonists” (Hoffmann-La Roche Inc., priority 2007, dated 2010).

The conditions of experiment [1]: phase II trial, cited from earlier work.
Experiment [2] has as its target T1, recombinant human NK3 receptor (Homo sapiens, UniProt P29371).
T1 construct: expressed in transfected cells; host or cells: HEK293 cells, transient expression; membranes
T1 sequence (P29371 1-465): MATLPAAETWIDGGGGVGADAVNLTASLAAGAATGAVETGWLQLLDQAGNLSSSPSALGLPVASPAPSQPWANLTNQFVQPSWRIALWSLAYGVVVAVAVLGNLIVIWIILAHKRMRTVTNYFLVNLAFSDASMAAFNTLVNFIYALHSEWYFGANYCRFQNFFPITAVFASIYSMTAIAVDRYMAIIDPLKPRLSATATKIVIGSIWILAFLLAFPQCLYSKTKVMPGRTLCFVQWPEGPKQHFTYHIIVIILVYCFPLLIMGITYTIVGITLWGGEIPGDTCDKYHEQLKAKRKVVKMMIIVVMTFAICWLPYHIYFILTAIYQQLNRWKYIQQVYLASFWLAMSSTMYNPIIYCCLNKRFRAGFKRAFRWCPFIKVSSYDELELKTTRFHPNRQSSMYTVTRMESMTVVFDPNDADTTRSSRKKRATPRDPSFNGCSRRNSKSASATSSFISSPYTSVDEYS
The experiment can be described thus: [3H]SR142801 competition binding assay. To be noted: membranes from HEK293 cells transiently expressing recombinant human NK3 receptor; [3H]SR142801 radioligand; Ki by Cheng-Prussoff. As for the experimental part: [^3H]SR142801 Competition Binding Assay
hNK3 receptor binding experiment were performed using [^3H]SR142801 (Catalog No. TRK1035, specific activity: 74.0 Ci/mmol, Amersham, GE Healthcare UK limited, Buckinghamshire, UK) and membrane isolated from HEK293 cells transiently expressing recombinant human NK3 receptor. After thawing, the membrane homogenates were centrifuged at 48,000×g for 10 min at 4° C., the pellets were resuspended in the 50 mM Tris-HCl, 4 mM MnCl2, 1 μM phosphoramidon, 0.1% BSA binding buffer at pH 7.4 to a final assay concentration of 5 μg protein/well. For inhibition experiments, membranes were incubated with [^3H]SR142801 at a concentration equal to KD value of radioligand and 10 concentrations of the inhibitory compound (0.0003-10 μM) (in a total reaction volume of 500 μl) for 75 min at room temperature (RT). At the end of the incubation, membranes were filtered onto unit filter (96-well white microplate with bonded GF/C filter preincubated 1 h in 0.3% PEI+0.3% BSA, Packard BioScience, Meriden, Conn.) with a Filtermate 196 harvester (Packard BioScience) and washed 4 times with ice-cold 50 mM Tris-HCl, pH 7.4 buffer. Nonspecific binding was measured in the presence of 10 μM SB222200 for both radioligands. The radioactivity on the filter was counted (5 min) on a Packard Top-count microplate scintillation counter with quenching correction after addition of 45 μl of microscint 40 (Canberra Packard S. A., Zürich, Switzerland) and shaking for 1 h. Inhibition curves were fitted according to the Hill equation: y=100/(1+(x/IC50)^nH), where nH=slope factor using Excel-fit 4 software (Microsoft). IC50 values were derived from the inhibition curve and the affinity constant (Ki) values were calculated using the Cheng-Prussoff equation Ki=IC50/(1+[L]/KD) where [L] is the concentration of radioligand and KD is its dissociation constant at the receptor, derived from the saturation isotherm. All experiments were performed in duplicate and the mean±standard error (SEM) of the individual Ki values was calculated.

Regarding `CC(=O)N(C)C1(c2ccccc2)CCN(CCC[C@]2(c3ccc(Cl)c(Cl)c3)CCCN(C(=O)c3ccccc3)C2)CC1` [SR 142,801, Osanetant], the “activity on positive symptoms of schizophrenia” value in experiment [1] (altered behaviour, delusion, hallucinations, extreme emotions, excited motor activity, incoherent speech) is on record as “active”. Also, the “activity in the treatment of negative symptoms of schizophrenia” value in experiment [1] (depression, anhedonia, social isolation, memory and attention deficits) was “inactive”.

For orientation: Ki means the dissociation constant of the complex between target and ligand, obtained from inhibition or displacement. For `C[C@@H](Oc1ncccn1)[C@@H]1CN(C(=O)N2CCN(S(C)(=O)=O)CC2)C[C@H]1c1ccc(Cl)c(Cl)c1` (racemic) [Example 42, [(3RS,4SR)-3-(3,4-Dichloro-phenyl)-4-[(RS)-1-(pyrimidin-2-yloxy)-ethyl]-pyrrolidin-1-yl}-(4-methanesulfonyl-piperazin-1-yl)-methanone], in experiment [2], the Ki turned out to be 69.9 nM.

As for `C[C@@H](Oc1ncc(Cl)cn1)[C@@H]1CN(C(=O)N2CCN(S(C)(=O)=O)CC2)C[C@H]1c1ccc(Cl)c(Cl)c1` (racemic) [Example 53, [(3SR,4RS)-3-[(RS)-1-(5-Chloro-pyrimidin-2-yloxy)-ethyl]-4-(3,4-dichloro-phenyl)-pyrrolidin-1-yl]-(4-methanesulfonyl-piperazin-1-yl)-methanone], the Ki in experiment [2] came to 6.8 nM.

On to `CC(=O)NC1(c2ccccc2)CCN(CC(=O)N2C[C@@H]([C@@H](C)Oc3ccc(Cl)cc3)[C@H](c3ccc(Cl)c(Cl)c3)C2)CC1` (racemic) [Example 64, N-(1-{2-[(3SR,4RS)-3-[(RS)-1-(4-Chloro-phenoxy)-ethyl]-4-(3,4-dichloro-phenyl)-pyrrolidin-1-yl]-2-oxo-ethyl}-4-phenyl-piperidin-4-yl)-acetamide], for which the Ki in experiment [2] amounted to 19 nM. For the compound “N-(1-{2-[(3SR,4RS)-[3-(RS)-1-(4-Chloro-phenoxy)-ethyl]-4-(3,4-dichloro-phenyl)-pyrrolidin-1-yl]-2-oxo-ethyl}-piperidin-4-yl)-N-methyl-acetamide [Example 65]”, the Ki in experiment [2] amounted to 20 nM. Still for that read-out and setting: for `C[C@H](Oc1ccc(C(F)(F)F)cn1)[C@H]1CN(C(=O)N2CCN(S(C)(=O)=O)CC2)C[C@@H]1c1ccc(Cl)c(Cl)c1` (racemic) [Example 69, {(3SR,4RS)-3-(3,4-Dichloro-phenyl)-4-[(SR)-1-(5-trifluoromethyl-pyridin-2-yloxy)ethyl]-pyrrolidin-1-yl}-(4-methanesulfonyl-piperazin-1-yl)-methanone] the value was 5.6 nM; for `Cc1ccc(O[C@H](C)[C@@H]2CN(C(=O)N3CCN(S(C)(=O)=O)CC3)C[C@H]2c2ccc(Cl)c(Cl)c2)cc1` (racemic) [Example 31, [(3RS,4SR)-3-(3,4-Dichloro-phenyl)-4-((RS)-1-p-tolyloxy-ethyl)-pyrrolidin-1-yl]-(4-methanesulfonyl-piperazin-1-yl)-methanone], 58.9 nM. Still for that read-out and setting: for `C[C@@H](Oc1ccc(Cl)cn1)[C@@H]1CN(C(=O)N2CCN3C(=O)CCC3C2)C[C@H]1c1ccc(Cl)c(Cl)c1` (mixture of isomers) [Example 62, 2-[(3SR,4RS)-3-[(RS)-1-(5-Chloro-pyridin-2-yloxy)-ethyl]-4-(3,4-dichloro-phenyl)-pyrrolidine-1-carbonyl]-hexahydro-pyrrolo[1,2-a]pyrazin-6-one] the value was 24 nM; for `C[C@@H](Oc1ccc(Cl)cn1)[C@@H]1CN(C(=O)CCCCN2CCOCC2)C[C@H]1c1ccc(Cl)c(Cl)c1` (racemic) [Example 55, 1-[(3SR,4RS)-3-[(RS)-1-(5-Chloro-pyridin-2-yloxy)-ethyl]-4-(3,4-dichloro-phenyl)-pyrrolidin-1-yl]-5-morpholin-4-yl-pentan-1-one], 20 nM.

As for `C[C@@H](Oc1ccc(F)cn1)[C@@H]1CN(C(=O)N2CCN(S(C)(=O)=O)CC2)C[C@H]1c1ccc(Cl)c(Cl)c1` (racemic) [Example 59, {(3RS,4SR)-3-(3,4-Dichloro-phenyl)-4-[(RS)-1-(5-fluoro-pyridin-2-yloxy)-ethyl]-pyrrolidin-1-yl}-(4-methanesulfonyl-piperazin-1-yl)-methanone], the Ki in experiment [2] was 12.6 nM. Consider `C[C@H](Oc1ccc(C(F)(F)F)cc1)[C@@H]1CN(C(=O)N2CCN(S(C)(=O)=O)CC2)C[C@H]1c1ccc(Cl)c(Cl)c1` (racemic) [Example 17, {(3RS,4SR)-3-(3,4-Dichloro-phenyl)-4-[(SR)-1 (4-trifluoromethyl-phenoxy)-ethyl]-pyrrolidin-1-yl}-(4-methanesulfonyl-piperazin-1-yl)-methanone], for which the Ki in experiment [2] came to 46.8 nM. Still for that read-out and setting: then `CC(=O)N1CCN(CC(=O)N2C[C@@H]([C@@H](C)Oc3ccc(Cl)cc3)[C@H](c3ccc(Cl)c(Cl)c3)C2)CC1` (racemic) [Example 66, 2-(4-Acetyl-piperazin-1-yl)-1-[(3SR,4RS)-3-[(RS)-1-(4-chloro-phenoxy)-ethyl]-4-(3,4-dichloro-phenyl)-pyrrolidin-1-yl]-ethanone], with 11 nM; and `CS(=O)(=O)N1CCN(C(=O)N2C[C@@H](COc3ccc(Cl)cn3)[C@H](c3ccc(Cl)c(Cl)c3)C2)CC1` (racemic) [Example 63], with 12 nM; and `CC(=O)N1CCN(CC(=O)N2C[C@@H]([C@@H](C)Oc3ccc(C(F)(F)F)cc3)[C@H](c3ccc(Cl)c(Cl)c3)C2)CC1` (racemic) [Example 24, 2-(4-Acetyl-piperazin-1-yl)-1-{(3RS,4SR)-3-(3,4-dichloro-phenyl)-4-[(RS)-1-(4-trifluoromethyl-phenoxy)-ethyl]-pyrrolidin-1-yl}-ethanone], with 58.9 nM. The same measure, in the same setting: for `C[C@@H](Oc1ncc(F)cn1)[C@@H]1CN(C(=O)N2CCN(S(C)(=O)=O)CC2)C[C@H]1c1ccc(Cl)c(Cl)c1` (racemic) [Example 51, {(3RS,4SR)-3-(3,4-Dichloro-phenyl)-4-[(RS)-1-(5-fluoro-pyrimidin-2-yloxy)-ethyl]-pyrrolidin-1-yl}-(4-methanesulfonyl-piperazin-1-yl)-methanone] the value was 23.7 nM; for `C[C@@H](Oc1ccc(Cl)cc1)[C@@H]1CN(C(=O)CN2CCC(CO)CC2)C[C@H]1c1ccc(Cl)c(Cl)c1` (racemic) [Example 67, 1-[(3SR,4RS)-3-[(RS)-1-(4-Chloro-phenoxy)-ethyl]-4-(3,4-dichloro-phenyl)-pyrrolidin-1-yl]-2-(4-hydroxymethyl-piperidin-1-yl)-ethanone], 53 nM; for `C[C@@H](Oc1ccc(Cl)cn1)[C@@H]1CN(C(=O)N2CCN(S(C)(=O)=O)CC2)C[C@H]1c1ccc(Cl)c(Cl)c1` (racemic) [Example 39, [(3SR,4RS)-3-[(RS)-1-(5-Chloro-pyridin-2-yloxy)-ethyl]-4-(3,4-dichloro-phenyl)-pyrrolidin-1-yl]-(4-methanesulfonyl-piperazin-1-yl)-methanone], 2.9 nM. `C[C@H](Oc1ccc(C#N)cc1)[C@@H]1CN(C(=O)N2CCN(S(C)(=O)=O)CC2)C[C@H]1c1ccc(Cl)c(Cl)c1` (racemic) [Example 45, 4-{(SR)-1-[(3SR,4RS)-4-(3,4-Dichloro-phenyl)-1-(4-methanesulfonyl-piperazine-1-carbonyl)-pyrrolidin-3-yl]-ethoxy}-benzonitrile]: the Ki in experiment [2] came to 95.4 nM. As for `C[C@@H](Oc1ccc(F)cc1)[C@@H]1CN(C(=O)N2CCN(S(C)(=O)=O)CC2)C[C@H]1c1ccc(Cl)c(Cl)c1` (racemic) [Example 34, {(3RS,4SR)-3-(3,4-Dichloro-phenyl)-4-[(RS)-1-(4-fluoro-phenoxy)-ethyl]-pyrrolidin-1-yl}-(4-methanesulfonyl-piperazin-1-yl)-methanone], in experiment [2], the Ki is 40.1 nM.
